According to paper PMC9200803, “Design, synthesis, and biological evaluation of tetrahydroquinolinones and tetrahydroquinolines with anticancer activity” (Scientific Reports, 2022):

What was measured:
HCT-116 cells [1] = experiment: MTT cell viability assay, HCT-116; format: cell-based, human; conditions: for IC50: MTT, 72 h, IC50 ± SD
Procedure: (§1) To evaluate the effects of the newly synthesized tetrahydroquinolin-2(1H)-one derivatives on cell viability, we treated human colon cancer cells HCT-116, human breast cancer cells MCF-7, and human non-small cell lung cancer cells A-549 with different concentrations of the compounds for 72 h. After incubation, the MTT (3-(4,5-dimethylthiazol-2-yl)-2,5-diphenyltetrazolium bromide) assay was performed and the cytotoxic potency of compounds (expressed in IC50) on the cells was determined in comparison to control cells treated with 1% of dimethyl sulfoxide (DMSO) (Table 1). […] We also compared the activity of 20d and 19b to the reference control drug Cisplatin, which is widely used in chemotherapy.
(§2) A-549 (CCL-185) and MCF-7 ([…]) cells were cultured in RPMI-1640 medium, while HCT-116 (CVCL-427), (hMLH1)-deficient (MMR^–) and hMLH1-proficient (MMR^+) RKO cells were cultured in McCoy’s 5A medium. The culture media were supplemented with 10% fetal bovine serum, 2 mM L-glutamine, and antibiotics (penicillin 62.6 µg/ml and streptomycin 40 µg/ml). Cultivation of cell lines was carried out at 37 °C under a humidified atmosphere containing 5% CO2, and the cultures were routinely screened for Mycoplasma contamination. A-549, MCF-7, and HCT-116 cells were obtained from American Type Culture Collection (ATCC), while RKO colon carcinoma cells were a kind gift of Dr Timothy Kinsella (Brown University, USA).
(§3) The viability of cells was determined in response to the newly synthesized compounds using the MTT (Sigma-Aldrich) assay. Briefly, cells were seeded into 96-well plates and allowed to attach overnight. Then, cells were exposed to various concentrations of compounds for 24, 48 or 72 h. Negative controls were treated with the same amount of DMSO solvent (1%). After treatment, the MTT solution (0.4 mg/ml) was added to each well and allowed to react with cells for 2–3 h at 37 °C. Next, the medium was removed, the formazan product formed was dissolved in 100 μl of DMSO, and the absorbance was determined at 540 nm using an ASYS UVM340 microplate reader (Biochrom Ltd.). The IC50 value, which represents the concentration of the compound required to inhibit cell growth by 50% compared to vehicle, was calculated using GraphPad Prism 8 software based on the curves plotting survival against dose averaged from at least three independent experiments.

A-549 cells [2] = experiment: MTT cell viability assay, A-549; format: cell-based, human
Procedure: as §1, §2, §3

MCF-7 cells = experiment: MTT cell viability assay, MCF-7; format: cell-based, human; conditions: Homo sapiens, MCF7, 72 h, IC50 ± SD
Procedure: as §1, §2, §3

[3] = test system: hMLH1-deficient (MMR–) RKO cells; experiment: MTT cell viability assay, hMLH1-deficient (MMR–) RKO; format: cell-based, human
Description: (§4) We further attempted to determine whether 20d-induced cancer cell death was related to the induction of ROS production in HCT-116 cells. For this purpose, we pretreated cells with N-acetyl-L-cysteine (NAC), which is a commonly used antioxidant and ROS scavenger. […] HCT-116 cell line has high-frequency microsatellite instability, which is associated with deficient DNA mismatch repair (MMR)[31]. The MMR system corrects DNA-mismatched and insertion–deletion loop bases generated during DNA replication. One of the key proteins involved in the MMR pathway is MLH1, which is mutated or epigenetically silenced in many MMR-deficient (MMR^–) cells, such as HCT-116[33]. To further determine the selectivity for MMR deficiency, we analyzed the cell viability of human MutL homologue 1 (hMLH1)-deficient (MMR^–) and hMLH1-proficient (MMR^+) RKO human colon carcinoma cell lines. The latter was established by transfecting hMLH1 cDNA into MMR^− RKO cell line[34]. In MMR^– RKO cells, the hMLH1 gene promoter was silenced transcriptionally by hypermethylation. […]
(§5) The viability of cells was determined in response to the newly synthesized compounds using the MTT (Sigma-Aldrich) assay. […] Next, the medium was removed, the formazan product formed was dissolved in 100 μl of DMSO, and the absorbance was determined at 540 nm using an ASYS UVM340 microplate reader (Biochrom Ltd.). […]

[4] = test system: hMLH1-proficient (MMR+) RKO cells; experiment: MTT cell viability assay, hMLH1-proficient (MMR+) RKO; format: cell-based; conditions: Homo sapiens, mean ± SD
Description: as §4, §5

HCT-116 cells [5] = experiment: Colony formation (clonogenic) assay; format: cell-based, human; conditions: HCT-116, 24 h pretreatment, 9 days culture
Procedure: A total of 500 HCT-116 cells/well was seeded into six-well plates. After attachment, cells were pretreated with DMSO (1%) or various concentrations of 20d and 19b for 24 h. Following incubation, the medium was changed, and cells were cultured for 9 days. After culturing, cells were washed with phosphate-buffered saline (PBS), fixed with 100% methanol for 30 min, and then stained with 0.5% crystal violet for 15 min. The plates were air-dried, and visible colonies were counted using ImageJ software. The percentage viability of cells was calculated in comparison to the control.

HCT-116 cells [6] = experiment: Cell cycle distribution analysis by flow cytometry (PI staining); format: cell-based, human; conditions: HCT-116, 24 to 72 h, vs vehicle
Procedure: Based on their antiproliferative activity, 20d and 19b were evaluated for their effect on cell cycle phase distribution and DNA content by flow cytometry.
HCT-116 and A-549 cells were seeded into culture plates and allowed to attach overnight. Then, cells were incubated with the investigated compounds for the indicated time points. After incubation, the harvested cells were fixed with ice-cold 75% ethanol and stored overnight at − 20 °C. Next, cells were rehydrated with PBS in ice for 15 min and washed twice in PBS. Finally, cells were stained with […] propidium iodide (PI) and […] RNase A in PBS for 30 min at room temperature. Cell cycle distribution was determined using a Guava easyCyte 8 flow cytometer (Merck Millipore) and FlowJo v10 software.

A-549 cells [7] = experiment: ROS level, H2DCFDA probe, flow cytometry, A-549; format: cell-based, human; conditions: A-549, IC50 concentration, 1-24 h
HCT-116 cells [8] = experiment: Annexin V-FITC / PI staining, flow cytometry; format: cell-based, human; conditions: HCT-116, Annexin V/PI
Description: Due to its ability to mediate the redox signaling pathways, ROS interplays between two major types of programmed cell death: autophagy and apoptosis. One of the early events in the process of apoptosis is the translocation of phosphatidylserine to the exposed membrane surface, which can be detected using Annexin V, a protein with a high affinity to this phospholipid. In order to study the impact of 20d on apoptotic cell death, flow cytometry analyses with double-staining using Annexin V-fluorescein isothiocyanate (FITC) conjugate and propidium ioidide (PI) was performed.
To determine the proapoptotic activity of compounds, cells were seeded into Petri dishes. […] DMSO (1%, Merck) and Etoposide (10 μM, Sigma-Aldrich) were used as references. Cells were harvested and stained with FITC-Annexin V, (Thermo Fisher, V13242) according to the manufacturer’s instructions. Finally, cells were stained with propidium iodide (Thermo Fisher) and assessed using a Guava easyCyte 8 cell sorter (Merck Millipore). The results were analyzed using FlowJo v10 software.

## O=C(Nc1cccc(F)c1)OC1CCCc2c(-c3ccccc3)cc(=O)[nH]c21 (centres unmarked) [Compound 20d, (2-oxo-4-phenyl-5,6,7,8-tetrahydroquinolin-8-yl) N-(3-fluorophenyl)carbamate]
HCT-116 cells [1]; HCT-116, 10 and 20 µM
  cytotoxic effect after 24 h and 48 h exposure: slight cytotoxic effect
HCT-116 cells [1]; Homo sapiens, HCT-116, 72 h
  IC50: ~13 µM
HCT-116 cells [1]
  IC50: 12 ± 0.57 µM
A-549 cells [2]; A-549
  fold lower concentration than Cisplatin suppressing 50% of cell viability: 5 fold
A-549 cells [2]; Homo sapiens, A549, MTT, 72 h, IC50 ± SD
  IC50: 12.6 ± 0.54 µM
MCF-7 cells
  IC50: > 50 µM
[3]; Homo sapiens, RKO, mean ± SD
  IC50: 1.21 ± 0.13 µM
[3]; p < 0.001
  fold higher sensitivity of MMR– RKO vs MMR+ RKO cells: 3.95 fold
[4]
  IC50: 4.78 ± 0.38 µM
HCT-116 cells [5]
  formation of colonies: effectively inhibited the formation of colonies in a concentration-dependent manner
HCT-116 cells [6]
  increase in the number of cells in the G0/G1 phase: < 14%
  number of cells in the S-phase: substantial decrease
A-549 cells [7]
  increase in ROS level compared to vehicle: ~5%
HCT-116 cells [8]
  early and late apoptotic and necrotic fractions: on the same level as in DMSO-treated group
